Assay results: patent US20080207885A1, “Method for site-specific labeling of RNA using a deoxyribozyme” (priority 2007, published 2008)
{App} = adenylated (5'-5' adenylyl pyrophosphate) terminus

Assays:
Type in all cases: biochemical
[1] = test system: 10DM24 deoxyribozyme; experiment: 10DM24-catalyzed ligation of small-molecule NTP substrate to branch-site adenosine of RNA substrate L with cofactor RΔ; details: for krel = kobs,NTP*/kobs,NTP: relative to GTP; for kobs,enh/kobs,std: GTP series
Protocol: (§1) General Description of Kinetic Assays. All kinetic assays with the 10DM24 deoxyribozyme and its variants were performed according to established methods (Flynn-Charlebois, et al. (2003) supra; Wang and Silverman (2003) supra). The 5′-^32P-labeled RNA substrate (L for “left-hand substrate”) that provides the branch-site adenosine was the limiting reagent relative to 10DM24 (E) and the truncated cofactor RNA (RΔ; R originally derived from “right-hand substrate”). The ratio L:E:RΔ was 1:10:30, with 0.25 μM 10DM24. The cofactor RΔ was 5′-phosphorylated unless otherwise stated. The RNA substrate L, deoxyribozyme 10DM24 and cofactor RΔ were annealed in 5 mM HEPES, pH 7.5, 15 mM NaCl, 0.1 mM EDTA by heating at 95° C. for 3 minutes and cooling on ice for 5 minutes. The ligation reactions were performed with the appropriate concentration of NTP substrate (0.05-50 mM) at a final buffer concentration of 100 mM CHES, pH 9.0, 150 mM NaCl, 2 mM KCl, and 40-400 mM MgCl2 at 37° C. for up to 5 hours. The combination of 1 mM NTP and 40 mM MgCl2 was defined as “standard incubation conditions”; 10 mM NTP and 150 mM MgCl2 was defined as “enhanced incubation conditions”. At appropriate timepoints, aliquots were removed from the sample, quenched into stop solution (80% formamide, 1× TB [89 mM each Tris and boric acid, pH 8.3], and 50 mM EDTA containing 0.025% bromophenol blue and xylene cyanol) and stored at −20° C. prior to analysis. Samples were separated by 20% denaturing PAGE at 30 W for 115 minutes and imaged with a PHOSPHORIMAGER. The resulting data were fit to the equation yield=Y·(1−e^−kt), where k=kobs and Y=final yield.
Use of Free NTPs as Substrates. It was determined whether 10DM24 could catalyze ligation with free GTP as a substrate (see FIG. 1B), thereby transferring guanosine 5′-monophosphate (GMP) to the branch-site adenosine 2′-hydroxyl group. When RΔ, an oligoribonucleotide cofactor that corresponds to all of the remaining nucleotides of R, was added to 10DM24 along with GTP, ligation was efficient (FIG. 8; 94% yield in 5 hours and kobs 0.034 min^−1 under the standard incubation conditions of 1 mM GTP and 40 mM MgCl2 at pH 9.0, 37° C.). The RNA product with the single added guanosine at the branch-site adenosine was PAGE-purified and the identity confirmed by partial alkaline hydrolysis (50 mM NaHCO3 at 95° C. for 5 minutes) and MALDI mass spectrometry (m/z calcd. 5433, found 5437±5).

[2] = test system: 10DM24 deoxyribozyme; experiment: Ligation of GTP or pppGpG in presence of shorter cofactor RΔΔ; details: RΔΔ cofactor, 20 mM NTP and 150 mM MgCl2, pH 9.0, 37° C.
Protocol: It was subsequently shown that a binding site for an NTP cofactor can be located adjacent to the substrate binding site. This was achieved by removing an additional nucleotide from the RΔ cofactor, forming the shorter RΔΔ cofactor which required two added nucleotides to reconstitute the complete P4 region (FIG. 10). The 10DM24-catalyzed ligation reaction of GTP in the presence of the two-nucleotide short cofactor RΔΔ was performed with the 5′-^32P-labeled RNA substrate (L) that provides the branch-site adenosine as the limiting reagent. For kinetic assays, the ratio of L:E:RΔΔ was 1:10:30 with 0.25 μM deoxyribozyme (E). For isolation of the reaction products, the ratio L:E:RΔΔ was 1:2:3 with 1.5 μM deoxyribozyme. The reaction was performed under the enhanced incubation conditions with 20 mM GTP and 150 mM MgCl2 in 100 mM CHES, pH 9.0, 150 mM NaCl, and 2 mM KCl at 37° C. for up to 7 hours. […] Both products were isolated and shown by partial alkaline hydrolysis to be branched with the connectivities A-G and A-GG (where A is the branch-site adenosine).
It was contemplated that the new A-GG product was formed by initial templated but otherwise uncatalyzed synthesis of a GG dinucleotide (i.e., pppGpG) from two GTP molecules, followed by 10DM24-catalyzed branch formation using this dinucleotide. […] The reaction was performed under the enhanced incubation conditions of 20 mM GTP and 150 mM MgCl2. […] The pppGpG dinucleotide was synthesized independently using T7 RNA polymerase (Huang, et al. (1998) supra) and led solely to the A-GG product. Although the pppGpG substrate had Kd,app of >1 mM with RΔΔ, similar to Kd,app for GTP with RΔ, the ligation reaction with pppGpG and RΔΔ had kobs six-fold higher than for the analogous reaction with GTP and RΔ (Table 8).
Similar experiments were performed using the mutant 10DM24 deoxyribozyme that has CTTT rather than CCTT in the P4 region (FIG. 11). For the DNA-catalyzed ligation of pppGpG, the 5′-^32P-labeled RNA with the branch-site adenosine (L) was incubated with the 10DM24 deoxyribozyme (E) and the cofactor RΔΔ in the ratio of L:E:RΔΔ=1:10:30 in the presence of 1 mM pppGpG and 40 mM MgCl2 in 100 mM CHES pH 9.0, 150 mM NaCl, and 2 mM KCl at 37° C. The analysis of the ligation reaction was performed as described herein. […] This is consistent with the model that pppGpG and the first two nucleotides of RΔΔ together reconstitute the P4 helix. When the ligation reaction with pppGpG was tested in the presence of RΔ instead of RΔΔ, the ligation product A-GG was formed, but with a 10-fold decrease in kobs (squares in FIG. 11). Because RΔ provides an extraneous G nucleotide when combined with pppGpG (see legend of FIG. 11), some disruption in activity is perhaps anticipated. […] This is consistent with the observation that GTP was also not a substrate for the 10DM24-C44T mutant deoxyribozyme.
The ligation reaction of pppGpG was also performed using a variety of pppGpG concentrations with the parent 10DM24 deoxyribozyme in the presence of RΔΔ and 40 mM MgCl2. In FIG. 12, the kobs values are plotted versus [pppGpG] and fit to kobs=kmax·[pppGpG]/(Kd,app+[pppGpG]). The Kd,app for pppGpG was >1 mM.

[3] = test system: 10DM24-C44T mutant deoxyribozyme; experiment: Ligation of NTP substrate with 10DM24 variant in which the terminal P4 nucleotide is changed C→T, cofactor RΔ; details: for krel = kobs,NTP*/kobs,NTP: relative to ATP
Protocol: as §1
Focus was then placed on the purine NTPs (GTP, ATP) and their derivatives. When 1 mM ATP was provided as a small molecule substrate in place of GTP using the original 10DM24 sequence and RΔ, no reaction was observed (<1% in 5 hours). […] Furthermore, the kobs increased sixteen-fold to 0.013 min^−1 under enhanced conditions with 10 mM ATP (82% yield in 3 hours).

[4] = test system: 10DM24 deoxyribozyme; experiment: Ligation with full-length R oligonucleotide as substrate, varied 5′-terminal nucleotide; details: for kobs: full-length R substrate, deoxyribozyme nucleotide changed to maintain Watson-Crick complementarity
Protocol: as §1
The generality of the ligation reaction using other NTP substrates in place of GTP was also determined. The analogous reaction with the full-length R oligonucleotide as substrate proceeded well when a 5′-terminal G was present (kobs 0.51 min^−1 for 5′-AppG), with only three-fold reduced rate with 5′-AppA (kobs 0.18 min^−1). The RNA substrate with 5′-AppC reacted 20-fold more slowly than 5′-AppG, but still gave high yield (kobs 0.024 min^−1; 89% in 3 hours), whereas the yield with 5′-AppU was very poor (kobs 0.002 min^−1; 9% in 3 hours). It is noted that in all cases, the corresponding deoxyribozyme nucleotide was changed to maintain Watson-Crick complementarity.

[5] = standard conditions except with 50 mM CHES
[6] = enhanced incubation conditions: 10 mM NTP, 150 mM MgCl2, 100 mM CHES pH 9.0, 37° C.
[7] = standard incubation conditions: 1 mM NTP, 40 mM MgCl2, 100 mM CHES pH 9.0, 150 mM NaCl, 2 mM KCl, 37° C., RΔ
[8] = enhanced incubation conditions: 10 mM NTP, 150 mM MgCl2, pH 9.0, 37° C.
[9] = standard incubation conditions: 1 mM NTP, 40 mM MgCl2, pH 9.0, 37° C., RΔ, ATP series

Molecule | kobs,enh/kobs,std [1] | ligation yield %, 3 h ([1]; enhanced incubation conditions) | kobs [1, 6] | krel = kobs,NTP*/kobs,NTP ([1]; enhanced incubation conditions) | ligation yield %, 5 h ([1]; standard incubation conditions) | kobs [1, 7] | krel = kobs,NTP*/kobs,NTP ([1]; standard incubation conditions) | kobs,enh/kobs,std ([3]; ATP series) | ligation yield %, 3 h ([3]; enhanced incubation conditions) | kobs [3, 8] | krel = kobs,NTP*/kobs,NTP ([3]; enhanced incubation conditions) | ligation yield %, 5 h ([3]; standard incubation conditions) | kobs [3, 9] | krel = kobs,NTP*/kobs,NTP ([3]; standard incubation conditions) | also measured
Nc1nc2c(ncn2[C@H]2CC[C@@H](COP(=O)(O)OP(=O)(O)OP(=O)(O)O)O2)c(=O)[nH]1 [ddGTP, 2′,3′-dideoxyGTP] | – | – | – | – | – | – | – | – | – | – | – | – | – | – | kobs [1, 5]: 0.013 min⁻¹; ligation yield %, 5 h [1, 5]: 85%; krel = kobs,NTP*/kobs,NTP [1, 5]: 0.38
Nc1nc2c(ncn2[C@H]2C[C@H](O)[C@@H](COP(=O)(O)OP(=O)(O)OP(=O)(O)O)O2)c(=O)[nH]1 [dGTP, 2′-deoxyGTP] | 4 | 90% | 0.081 min⁻¹ | 0.31 | 88% | 0.020 min⁻¹ | 0.60 | – | – | – | – | – | – | – | reaction products formed [2]: only the single-nucleotide addition product
Nc1ncnc2c1ncn2[C@H]1C[C@H](O)[C@@H](COP(=O)(O)OP(=O)(O)OP(=O)(O)O)O1 [dATP] | – | – | – | – | – | – | – | 19 | 65% | 0.007 min⁻¹ | 0.56 | 17% | 0.0004 min⁻¹ | 0.50 | –
Nc1nc(N)c2ncn(C3OC(COP(=O)(O)OP(=O)(O)OP(=O)(O)O)C(O)C3O)c2n1 (stereo not shown) [DTP, 2,6-diaminopurine ribonucleoside triphosphate] | – | – | – | – | – | – | – | 8 | 90% | 0.027 min⁻¹ | 2.1 | 68% | 0.0032 min⁻¹ | 4.0 | –
O=P(O)(O)OP(=O)(O)OP(=O)(O)OC[C@H]1O[C@@H](n2cnc3c(O)ncnc32)[C@H](O)[C@@H]1O [ITP, inosine triphosphate] | 21 | 84% | 0.014 min⁻¹ | 0.05 | 25% | 0.0007 min⁻¹ | 0.02 | – | – | – | – | – | – | – | –
C2-C3-cleaved GTP [G^clv-TP] | >3 | 6% | 0.0003 min⁻¹ | 0.001 | <1% | <0.0001 min⁻¹ | <0.0003 | – | – | – | – | – | – | – | kobs diminished relative to GTP [1]: approximately 1000 fold
5′-AppC: full-length R oligonucleotide substrate with 5′-terminal C (CGAAGAGAUGGCGACGG; RNA, 5' {App}, backbone not given here) | – | – | – | – | – | – | – | – | – | – | – | – | – | – | reacted more slowly than 5′-AppG [4]: 20 fold; ligation yield in 3 hours [4]: 89%; kobs [4]: 0.024 min⁻¹
Nc1ncnc2c1ncn2[C@@H]1O[C@H](COP(=O)(O)OP(=O)(O)OP(=O)(O)O)[C@@H](O)[C@@H]1O [ara-ATP, arabino-ATP] | – | – | – | – | – | – | – | 13 | 44% | 0.005 min⁻¹ | 0.41 | 13% | 0.0004 min⁻¹ | 0.50 | –
Nc1nc2c(ncn2COCCOP(=O)(O)OP(=O)(O)OP(=O)(O)O)c(=O)[nH]1 [G^acv-TP, acyclovir triphosphate] | >7 | 14% | 0.0007 min⁻¹ | 0.003 | <1% | <0.0001 min⁻¹ | <0.0003 | – | – | – | – | – | – | – | kobs diminished relative to GTP [1]: ~300 fold
Nc1ncc2ncn([C@H]3C[C@H](O)[C@@H](COP(=O)(O)OP(=O)(O)OP(=O)(O)O)O3)c2n1 [d2AP-TP] | – | – | – | 0.003 | – | – | <0.0003 | >8 | 17% | 0.0008 min⁻¹ | 0.06 | <1% | – | <0.1 | kobs ([3]; standard conditions with 5′-OH-RΔ): <0.0001^[c] min^−1
Nc1ncnc2c1ncn2[C@H]1CC[C@@H](COP(=O)(O)OP(=O)(O)OP(=O)(O)O)O1 [ddATP] | – | – | – | – | – | – | – | – | – | – | – | 25% | 0.0007 min⁻¹ | 0.87 | –
5′-AppA: full-length R oligonucleotide substrate with 5′-terminal A (AGAAGAGAUGGCGACGG; RNA, 5' {App}, backbone not given here) | – | – | – | – | – | – | – | – | – | – | – | – | – | – | kobs [4]: 0.18 min⁻¹
5′-AppU: full-length R oligonucleotide substrate with 5′-terminal U (UGAAGAGAUGGCGACGG; RNA, 5' {App}, backbone not given here) | – | – | – | – | – | – | – | – | – | – | – | – | – | – | ligation yield in 3 hours [4]: 9%; kobs [4]: 0.002 min⁻¹
